biological target: Nav 1.7 (Homo sapiens (Human), UniProt Q15858); experiment: in-vitro Nav 1.7 PX (IC50); format: cell-based; conditions: not given
Sequence (Q15858 whole entry): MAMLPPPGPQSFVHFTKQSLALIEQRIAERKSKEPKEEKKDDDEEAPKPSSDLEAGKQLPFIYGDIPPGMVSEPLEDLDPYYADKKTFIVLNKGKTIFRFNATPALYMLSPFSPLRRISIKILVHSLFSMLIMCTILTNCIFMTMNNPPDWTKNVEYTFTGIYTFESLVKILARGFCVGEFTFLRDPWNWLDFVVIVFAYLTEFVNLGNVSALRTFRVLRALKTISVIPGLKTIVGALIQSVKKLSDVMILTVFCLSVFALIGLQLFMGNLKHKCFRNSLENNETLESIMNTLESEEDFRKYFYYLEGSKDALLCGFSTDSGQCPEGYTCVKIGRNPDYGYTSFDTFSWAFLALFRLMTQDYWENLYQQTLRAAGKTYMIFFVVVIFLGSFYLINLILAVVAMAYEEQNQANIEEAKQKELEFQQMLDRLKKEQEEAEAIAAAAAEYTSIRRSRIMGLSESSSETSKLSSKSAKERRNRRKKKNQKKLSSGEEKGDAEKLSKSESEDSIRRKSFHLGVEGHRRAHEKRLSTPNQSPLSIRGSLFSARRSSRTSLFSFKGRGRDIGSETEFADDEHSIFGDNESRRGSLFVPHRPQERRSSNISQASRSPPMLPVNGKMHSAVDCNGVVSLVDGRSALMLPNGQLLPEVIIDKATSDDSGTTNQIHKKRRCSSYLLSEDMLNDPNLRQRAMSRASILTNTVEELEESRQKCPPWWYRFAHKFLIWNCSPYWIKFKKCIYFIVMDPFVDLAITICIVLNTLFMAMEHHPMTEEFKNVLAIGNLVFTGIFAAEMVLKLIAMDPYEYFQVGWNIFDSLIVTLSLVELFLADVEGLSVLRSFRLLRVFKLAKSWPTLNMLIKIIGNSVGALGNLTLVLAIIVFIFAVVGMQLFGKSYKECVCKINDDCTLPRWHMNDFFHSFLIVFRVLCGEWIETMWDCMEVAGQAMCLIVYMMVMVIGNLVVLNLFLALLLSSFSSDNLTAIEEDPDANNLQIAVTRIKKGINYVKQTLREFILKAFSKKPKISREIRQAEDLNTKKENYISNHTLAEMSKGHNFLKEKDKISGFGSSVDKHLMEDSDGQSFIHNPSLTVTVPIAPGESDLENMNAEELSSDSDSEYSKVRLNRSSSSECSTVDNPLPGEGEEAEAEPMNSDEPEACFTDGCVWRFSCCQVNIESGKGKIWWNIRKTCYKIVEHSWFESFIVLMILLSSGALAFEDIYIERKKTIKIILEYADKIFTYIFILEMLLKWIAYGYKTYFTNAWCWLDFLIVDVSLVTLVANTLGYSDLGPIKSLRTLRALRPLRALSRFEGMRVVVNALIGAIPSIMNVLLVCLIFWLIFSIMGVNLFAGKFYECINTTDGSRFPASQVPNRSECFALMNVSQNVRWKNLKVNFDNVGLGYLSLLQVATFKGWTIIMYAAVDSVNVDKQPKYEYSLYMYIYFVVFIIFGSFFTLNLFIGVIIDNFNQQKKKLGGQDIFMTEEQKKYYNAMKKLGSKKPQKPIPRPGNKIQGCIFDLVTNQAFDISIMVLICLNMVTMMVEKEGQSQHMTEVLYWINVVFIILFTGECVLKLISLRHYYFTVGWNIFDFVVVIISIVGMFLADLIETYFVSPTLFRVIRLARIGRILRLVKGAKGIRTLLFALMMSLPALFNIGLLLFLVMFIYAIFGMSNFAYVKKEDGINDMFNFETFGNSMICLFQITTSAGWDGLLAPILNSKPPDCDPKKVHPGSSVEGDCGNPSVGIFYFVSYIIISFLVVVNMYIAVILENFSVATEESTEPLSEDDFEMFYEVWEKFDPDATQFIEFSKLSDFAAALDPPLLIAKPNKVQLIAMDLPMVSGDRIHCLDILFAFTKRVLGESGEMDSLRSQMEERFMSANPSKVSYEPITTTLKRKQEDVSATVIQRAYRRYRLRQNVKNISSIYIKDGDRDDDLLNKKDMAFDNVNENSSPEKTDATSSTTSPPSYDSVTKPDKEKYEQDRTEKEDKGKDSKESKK

IC50	Compound
109 nM	COc1cc(-c2cccc(OC(C)C)c2)ccc1-n1c(=O)ccc2cc(S(=O)(=O)Nc3cccnn3)ccc21 (atropisomer, axis not shown; (P)) [Example 1207, (P)-1-(3-methoxy-3′-(1-methylethoxy)-4-biphenylyl)-2-oxo-N-3-pyridazinyl-1,2-dihydro-6-quinolinesulfonamide]
39 nM	COc1cc(-c2ccc(F)c(Cl)c2)ccc1-n1c(=O)cnc2cc(S(=O)(=O)Nc3ccon3)ccc21 [Example 1198, 1-(3′-chloro-4′-fluoro-3-methoxy-4-biphenylyl)-N-3-isoxazolyl-2-oxo-1,2-dihydro-6-quinoxalinesulfonamide]

The next lines start with the molecule.

Compound	IC50
COc1cc(-c2ccc(C)c(Cl)c2)ccc1-n1c(=O)ccc2cc(S(=O)(=O)Nc3ccon3)ccc21 (atropisomer, axis not shown; (M)) [Example 588, (M)-1-(3′-chloro-3-methoxy-4′-methyl-4-biphenylyl)-N-3-isoxazolyl-2-oxo-1,2-dihydro-6-quinolinesulfonamide]	1020 nM
COc1cc(-c2cc(F)cc(Cl)c2)c(F)cc1-n1c(=O)ccc2cc(S(=O)(=O)Nc3ncc(F)cn3)ccc21 (atropisomer, axis not shown; (P)) [Example 544, (P)-1-(3′-chloro-2,5′-difluoro-5-methoxy-4-biphenylyl)-N-(5-fluoro-2-pyrimidinyl)-2-oxo-1,2-dihydro-6-quinolinesulfonamide]	14 nM

same assay, conditions: in-vitro Nav 1.7 PX data

IC50	Compound
206 nM	COc1ccc(-c2cc(F)cc(Cl)c2)cc1-n1c(=O)ccc2cc(S(=O)(=O)Nc3cnccn3)ccc21 [Example 876, 1-(3′-chloro-5′-fluoro-4-methoxy-3-biphenylyl)-2-oxo-N-2-pyrazinyl-1,2-dihydro-6-quinolinesulfonamide]
25 nM	COc1cc(CC2CCCCC2)c(F)cc1-n1c(=O)ccc2cc(S(=O)(=O)Nc3cccnn3)ccc21 [Example 1112, 1-(4-(cyclohexylmethyl)-5-fluoro-2-methoxyphenyl)-2-oxo-N-3-pyridazinyl-1,2-dihydro-6-quinolinesulfonamide]
37 nM	COc1cc(-c2ccc(Cl)cc2)ccc1-n1c(=O)ccc2cc(S(=O)(=O)Nc3ncco3)ccc21 [Example 766, 1-(4′-chloro-3-methoxy-4-biphenylyl)-N-1,3-oxazol-2-yl-2-oxo-1,2-dihydro-6-quinolinesulfonamide]

same assay, conditions: in-vitro PatchXpress (PX)

IC50	Compound
18 nM	COc1cc(-c2cc(F)cc(F)c2F)c(F)cc1-n1c(=O)ccc2cc(S(=O)(=O)Nc3ccon3)ccc21 (atropisomer, axis not shown; (P)) [Example 514, (P)—N-3-isoxazolyl-2-oxo-1-(2,2′,3′,5′-tetrafluoro-5-methoxy-4-biphenylyl)-1,2-dihydro-6-quinolinesulfonamide]
2000 nM	COc1cc(-c2cc(Cl)cc(C#N)c2)c(F)cc1-n1c(=O)ccc2cc(S(=O)(=O)Nc3ccon3)ccc21 (atropisomer, axis not shown; (P)) [Example 518, (P)-1-(3′-chloro-5′-cyano-2-fluoro-5-methoxy-4-biphenylyl)-N-3-isoxazolyl-2-oxo-1,2-dihydro-6-quinolinesulfonamide]
3150 nM	COc1cc(-c2ccc(C)c(Cl)c2)c(F)cc1-n1c(=O)ccc2cc(S(=O)(=O)Nc3ccon3)ccc21 (atropisomer, axis not shown; (M)) [Example 529, (M)-1-(3′-chloro-2-fluoro-5-methoxy-4′-methyl-4-biphenylyl)-N-3-isoxazolyl-2-oxo-1,2-dihydro-6-quinolinesulfonamide]
4 nM	COc1cc(Cl)cc(-c2cc(OC)c(-n3c(=O)ccc4cc(S(=O)(=O)Nc5ccon5)ccc43)cc2F)c1 (atropisomer, axis not shown; (P)) [Example 501, (P)-1-(3′-chloro-2-fluoro-5,5′-dimethoxy-4-biphenylyl)-N-3-isoxazolyl-2-oxo-1,2-dihydro-6-quinolinesulfonamide]

Reference: US9212182B2, “Bicyclic sulfonamide compounds as sodium channel inhibitors” (AMGEN INC., priority 2013, dated 2015)
